According to ChEMBL document CHEMBL1154454, “Tetrahydronaphthyl azole oxime ethers: the conformationally rigid analogues of oxiconazole as antibacterials” (2009):
Values after ≈ are worked out from the molar mass of the structure shown.

How the values were obtained:
Type in all cases: functional
Staphylococcus aureus = experiment: microbe, parasite or virus in culture; conditions: ATCC 25923, 24 h
Description: Antimicrobial activity against Staphylococcus aureus ATCC 25923 after 24 hrs by standard microbroth dilution assay

Aspergillus fumigatus = experiment: Antimicrobial activity against Aspergillus fumigatus after 72 hrs by standard microbroth dilution assay
Escherichia coli = experiment: microbe, parasite or virus in culture; conditions: ATCC 9637, 24 h
Description: Antimicrobial activity against Escherichia coli ATCC 9637 after 24 hrs by standard microbroth dilution assay

Pseudomonas aeruginosa = experiment: Antimicrobial activity against Pseudomonas aeruginosa ATCC BAA427 after 24 hrs by standard microbroth dilution assay
[1] = test system: Trichophyton mentagrophytes; experiment: Antimicrobial activity against Trichophyton mentagrophytes after 96 hrs by standard microbroth dilution assay
Candida parapsilosis = experiment: Antimicrobial activity against Candida parapsilosis after 48 hrs by standard microbroth dilution assay; conditions: Lodderomyces parapsilosis
Candida albicans = experiment: Antimicrobial activity against Candida albicans after 48 hrs by standard microbroth dilution assay
Sporothrix schenckii = experiment: Antimicrobial activity against Sporothrix schenckii after 72 hrs by standard microbroth dilution assay
Klebsiella pneumoniae = experiment: microbe, parasite or virus in culture; conditions: ATCC 27736, 24 h
Description: Antimicrobial activity against Klebsiella pneumoniae ATCC 27736 after 24 hrs by standard microbroth dilution assay

Cryptococcus neoformans = experiment: Antimicrobial activity against Cryptococcus neoformans after 72 hrs by standard microbroth dilution assay

Compound | MIC (Staphylococcus aureus) [µg/mL] | MIC (Aspergillus fumigatus) [µg/mL] | MIC (Escherichia coli) [µg/mL] | MIC (Pseudomonas aeruginosa) [µg/mL] | MIC [1] [µg/mL] | MIC (Candida parapsilosis) [µg/mL] | MIC (Candida albicans) [µg/mL] | MIC (Sporothrix schenckii) [µg/mL] | MIC (Klebsiella pneumoniae) [µg/mL] | MIC (Cryptococcus neoformans) [µg/mL]
Clc1cccc2c1CCC(Cn1ccnc1)/C2=N/OCc1ccccc1 (stereo unspecified) | 1.56 (≈ 4.27 µM) | 25 (≈ 68.3 µM) | 0.391 (≈ 1.07 µM) | > 50 | > 50 | > 50 | > 50 | > 50 | 6.25 (≈ 17.1 µM) | > 50
Clc1cccc(CO/N=C2\c3ccccc3CCC2Cn2ccnc2)c1 (stereo unspecified) | 1.56 (≈ 4.27 µM) | 25 (≈ 68.3 µM) | 0.391 (≈ 1.07 µM) | > 50 | > 50 | > 50 | > 50 | > 50 | 3.12 (≈ 8.54 µM) | > 50
OC(Cn1cncn1)(Cn1cncn1)c1ccc(F)cc1F [FLUCONAZOLE] | – | 2 (≈ 6.53 µM) | – | – | 1 (≈ 3.27 µM) | 1 (≈ 3.27 µM) | 0.5 (≈ 1.63 µM) | 2 (≈ 6.53 µM) | – | 1 (≈ 3.27 µM)
Cc1cccc2c1CCC(Cn1ccnc1)/C2=N/OCc1ccccc1 (stereo unspecified) | 1.56 (≈ 4.52 µM) | > 50 | 0.781 (≈ 2.26 µM) | > 50 | > 50 | > 50 | > 50 | > 50 | 6.25 (≈ 18.1 µM) | > 50
Clc1cccc(CO/N=C2\c3cccc(Br)c3CCC2Cn2ccnc2)c1 (stereo unspecified) | 0.781 (≈ 1.76 µM) | > 50 | 0.391 (≈ 0.879 µM) | > 50 | > 50 | 50 (≈ 112 µM) | > 50 | > 50 | 1.56 (≈ 3.51 µM) | > 50
Fc1cccc2c1CCC(Cn1cncn1)/C2=N/OCc1cccc(Cl)c1 (stereo unspecified) | > 50 | > 50 | 50 (≈ 130 µM) | > 50 | > 50 | > 50 | > 50 | > 50 | > 50 | > 50
Clc1cccc(CO/N=C2\c3cccc(Br)c3CCC2Cn2cncn2)c1 (stereo unspecified) | 6.25 (≈ 14 µM) | > 50 | 3.12 (≈ 7.01 µM) | > 50 | > 50 | > 50 | > 50 | > 50 | > 50 | > 50
Clc1cccc2c1CCC(Cn1cncn1)/C2=N/OCc1ccccc1 (stereo unspecified) | > 50 | > 50 | 25 (≈ 68.1 µM) | > 50 | > 50 | > 50 | > 50 | > 50 | > 50 | > 50
Brc1cccc2c1CCC(Cn1ccnc1)/C2=N/OCc1ccccc1 (stereo unspecified) | 1.56 (≈ 3.81 µM) | 50 (≈ 122 µM) | 0.391 (≈ 0.953 µM) | > 50 | > 50 | > 50 | > 50 | > 50 | 3.12 (≈ 7.62 µM) | > 50
Fc1cccc2c1CCC(Cn1ccnc1)/C2=N/OCc1ccccc1 (stereo unspecified) | 3.12 (≈ 8.94 µM) | > 50 | 0.781 (≈ 2.24 µM) | > 50 | > 50 | > 50 | > 50 | > 50 | 6.25 (≈ 17.9 µM) | > 50
Clc1cccc(CO/N=C2/c3ccccc3CCC2Cn2ccnc2)c1 (stereo unspecified) | 6.25 (≈ 17.1 µM) | > 50 | > 50 | > 50 | 25 (≈ 68.3 µM) | > 50 | > 50 | > 50 | > 50 | > 50
Brc1cccc2c1CCC(Cn1cncn1)/C2=N/OCc1ccccc1 (stereo unspecified) | 12.5 (≈ 30.4 µM) | > 50 | 6.25 (≈ 15.2 µM) | > 50 | > 50 | > 50 | > 50 | > 50 | > 50 | > 50
c1ccc(CO/N=C2\c3ccccc3CCC2Cn2ccnc2)cc1 (stereo unspecified) | 6.25 (≈ 18.9 µM) | 50 (≈ 151 µM) | 0.781 (≈ 2.36 µM) | > 50 | > 50 | > 50 | > 50 | > 50 | 6.25 (≈ 18.9 µM) | > 50
Clc1cccc(CO/N=C2\c3ccccc3CCC2Cn2cncn2)c1 (stereo unspecified) | 12.2 (≈ 33.4 µM) | > 50 | 12.2 (≈ 33.4 µM) | > 50 | > 50 | > 50 | > 50 | > 50 | > 50 | > 50
Fc1cccc2c1CCC(Cn1ccnc1)/C2=N/OCc1cccc(Cl)c1 (stereo unspecified) | 0.781 (≈ 2.03 µM) | > 50 | 0.391 (≈ 1.02 µM) | > 50 | > 50 | > 50 | > 50 | > 50 | 1.56 (≈ 4.07 µM) | > 50
Cc1cccc2c1CCC(Cn1ccnc1)/C2=N/OCc1cccc(Cl)c1 (stereo unspecified) | 0.781 (≈ 2.06 µM) | 50 (≈ 132 µM) | 0.391 (≈ 1.03 µM) | > 50 | > 50 | > 50 | > 50 | > 50 | 1.56 (≈ 4.11 µM) | > 50
Fc1cccc2c1CCC(Cn1cncn1)/C2=N/OCc1ccccc1 (stereo unspecified) | > 50 | > 50 | 25 (≈ 71.3 µM) | > 50 | > 50 | > 50 | > 50 | > 50 | > 50 | > 50
Clc1cccc2c1CCC(Cn1ccnc1)/C2=N\OCc1ccccc1 (stereo unspecified) | 3.12 (≈ 8.54 µM) | > 50 | > 50 | > 50 | 12.5 (≈ 34.2 µM) | > 50 | 50 (≈ 137 µM) | 50 (≈ 137 µM) | > 50 | > 50
c1ccc(CO/N=C2\c3ccccc3CCC2Cn2cncn2)cc1 (stereo unspecified) | > 50 | > 50 | 25 (≈ 75.2 µM) | > 50 | > 50 | > 50 | > 50 | > 50 | > 50 | > 50
Cc1cccc2c1CCC(Cn1cncn1)/C2=N/OCc1cccc(Cl)c1 (stereo unspecified) | 6.25 (≈ 16.4 µM) | > 50 | 6.25 (≈ 16.4 µM) | > 50 | > 50 | > 50 | > 50 | > 50 | > 50 | > 50
Clc1ccc(CO/N=C(\Cn2ccnc2)c2ccc(Cl)cc2Cl)c(Cl)c1 [OXICONAZOLE] | 6.25 (≈ 14.6 µM) | 6.25 (≈ 14.6 µM) | > 50 | > 50 | 6.25 (≈ 14.6 µM) | 3.12 (≈ 7.27 µM) | 12.5 (≈ 29.1 µM) | 3.12 (≈ 7.27 µM) | > 50 | 0.01 (≈ 0.0233 µM)
Cc1cccc2c1CCC(Cn1cncn1)/C2=N/OCc1ccccc1 (stereo unspecified) | > 50 | > 50 | 25 (≈ 72.2 µM) | > 50 | > 50 | > 50 | > 50 | > 50 | > 50 | > 50
